For 8 molecules, Kd results are on record in patent publication US6171866A, “Luminescence indicator for determining calcium ions” (AVL Medical Instruments, priority 1998, dated 2001).

In general, Kd refers to a measure of binding affinity in units of concentration.

This assay in a line: Determination of the Kd values of ionophores from UV-absorption Ca^2+ titration curves. Format: binding. To be noted: aqueous solution, 30 mmol/l tris/HCl buffer, CO2-free, pH 7.4; absorption at 248 nm; 0.00001 to 0.5 mol/l Ca^2+; calculated from found pKd. How it is done: wherein, at a given ionic strength and temperature, the dissociation constant (Kd) is given by Equation 2, [formula]
The PKd value (Equation 3) is the negative common logarithm of the dissociation constant:
The absorption values in dependence on the Ca^2+ concentration were measured using a commercial photometer, at an absorption wavelength of 248 nm. The resulting titration curves were normalized to the value Amax =1 at a Ca^2+ concentration of 0.00001 mol/l using Equation 4 (see below).
The Kd values of the ionophores were determined from the measured absorption values of the Ca^2+ -titration curves according to Equation 3 (see above) and Equation 4 [formula]
wherein Ax is the normalized absorption value at the given Ca^2+ concentration, Amax is the absorption value at 0.00001 mol/l Ca^2+ and pKd has the meaning indicated in Equation 3.
They were determined from the found pKd values by means of Equation 3.
As to `COCCN(CCN(CC(=O)O)CC(=O)O)c1ccccc1OC` [Ionophore X2, Potassium N-[2-(N'-methoxyethyl-N'-(2-methoxyphenyl)aminoethyl)]-imino-N,N-diacetate], the Kd was 330 µM.
With `CCOCCN(CCN(CC(=O)O)CC(=O)O)c1ccccc1OC` [Ionophore X3, Potassium N-[2-(N'-ethoxyethyl-N'-(2-methoxyphenyl)aminoethyl)]-imino-N,N-diacetate], the Kd is 1040 µM.
On to `CCCCN(CCN(CC(=O)O)CC(=O)O)c1ccccc1OC` [Ionophore X4, Potassium N-[2-(N'-butyl-N'-(2-methoxyphenyl)aminoethyl)]-imino-N,N-diacetate], for which the Kd is 9140 µM.
On to `COc1ccccc1N(CCOc1ccccc1)CCN(CC(=O)O)CC(=O)O` [Ionophore X5, Potassium N-[2-(N'-phenoxyethyl-N'-(2-methoxyphenyl)aminoethyl)]-imino-N,N-diacetate], for which the Kd is 6960 µM.
As for `COc1ccccc1N(CCOCC(=O)O)CCOCC(=O)O` [Ionophore X6, Potassium-o-anisidine-N,N-diethoxyacetate], the Kd was 200 µM.
With `CCOc1ccccc1N(CCOCC(=O)O)CCOCC(=O)O` [Ionophore X7, Potassium o-phenetidine-N,N-diethoxyacetate], the Kd is 1090 µM.
To `COc1ccc(Cl)cc1N(CCOCC(=O)O)CCOCC(=O)O` [Ionophore X8, Potassium 5-chloro-o-anisidine-N,N-diethoxyacetate] belongs 720 µM; to `COCCN(CCOC)c1ccccc1OCCN(CC(=O)O)CC(=O)O` [Ionophore X9, Potassium N-[2-(N',N'-dimethoxyethyl)aminophenoxyethyl]imino-N,N-diacetate], 6160 µM.
